In PMC11364775, “Ion occupancy of the selectivity filter controls opening of a cytoplasmic gate in the K2P channel TALK-2” (Nature Communications, 2024):
Numbering of substitutions follows the chain as printed. Where two headings read alike, the source gives them in different places.

Columns and labels:
[1] = target: T1, TALK-2 L264A mutant channels (Homo sapiens, UniProt Q96T54, L264A); test: Pore blocker inhibition (dose-response, residual currents) in inside-out patches at +40 mV; assay type: cell-based; design: expressed in transfected cells; host or cells: Xenopus laevis oocytes (cRNA injection), excised inside-out patches
T1 sequence (Q96T54 1-332 L264A): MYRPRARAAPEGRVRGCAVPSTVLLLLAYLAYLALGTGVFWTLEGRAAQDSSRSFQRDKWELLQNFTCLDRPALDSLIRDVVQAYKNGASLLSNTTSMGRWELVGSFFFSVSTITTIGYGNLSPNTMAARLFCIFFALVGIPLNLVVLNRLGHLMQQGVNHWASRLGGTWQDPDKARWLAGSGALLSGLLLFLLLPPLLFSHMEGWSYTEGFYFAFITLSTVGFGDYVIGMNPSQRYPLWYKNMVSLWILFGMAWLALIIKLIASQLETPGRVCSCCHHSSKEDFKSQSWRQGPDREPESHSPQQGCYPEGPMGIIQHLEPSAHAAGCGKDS
Experimental: Data shown are the mean ± s.e.m and the number (n) of independent experiments and repeats of representative measurements with similar results is indicated in the figure.
Electrophysiological recordings: Excised patch measurements in inside-out configuration under voltage-clamp conditions were performed at room temperature (22 – 24 °C). Patch pipettes were made from thick-walled borosilicate glass GB 200TF-8P (Science Products, Germany), had resistances of 0.2–0.5 MΩ (tip diameter of 10 - 25 µm) and filled with a pipette solution (in mM): 120 KCl, 10 HEPES and 3.6 CaCl2 (pH 7.0 - 8.5 adjusted with KOH/HCl) or 120 KCl, 10 AMPSO and 3.6 CaCl2 (pH 9.0 - 10.5 adjusted with KOH/HCl). Intracellular bath solutions and compounds were applied to the cytoplasmic side of excised patches for the various K^+ channels via a gravity flow multi-barrel pipette system. Intracellular solution had the following composition (in mM): 120 KCl, 10 HEPES, 2 EGTA and 1 Pyrophosphate (pH adjusted with KOH/HCl). In other intracellular bath solutions, K^+ was replaced by Rb^+ (pH 7.4 adjusted with RbOH/HCl). Currents were recorded with an EPC10 amplifier (HEKA electronics, Germany) and sampled at 10 kHz or higher and filtered with 3 kHz (-3 dB) or higher as appropriate for sampling rate.
Data analysis and statistics were done using Fitmaster (HEKA electronics, version: v2x73.5, Germany), Microsoft Excel 2021 (Microsoft Corporation, USA), and Igor Pro 9 software (WaveMetrics Inc., USA). Recorded currents were analyzed from stable membrane patches at a voltage defined in the respective figure legend or with a voltage protocol as indicated in the respective figure. […] Percentage inhibition or residual currents upon blocker application for a ligand (drug or bioactive lipid) was calculated from stable currents of excised membrane patches using the following Eqs. 2 and 3:2 %inhibition=1−Iinhibited/Ibasal*100 3 Residual current=100−%inhibition where Iinhibited refers to the stable current level recorded in the presence of a given concentration of a drug or bioactive lipid and Ibasal to the measured current before ligand application.

[2] = target: T1, TALK-2 L264A mutant channels; test: Conductance-voltage (G-V) curves from tail currents, V1/2 (intracellular Rb+); assay type: cell-based; design: expressed in transfected cells; host or cells: Xenopus laevis oocytes (cRNA injection), excised inside-out patches; settings: for Normalized current: TALK-2 L264A + 1 mM TPenA
Text: The voltage-dependent activation mechanism of the SF gate in K2P channels allows to estimate the electrical work (ΔG = zFΔV1/2) required for pore opening by fitting the G–V curve to a Boltzmann equation. […] The open state represents the situation of both gates being simultaneously open but voltage can only exert force on the SF gate that functions as voltage sensor. […] We further tested whether mutations that open the lower gate (L262A and L264A) would affect the extracellular pH sensitivity. […] We further explored this concept of allosteric coupling using the mutations identified in the functional alanine screen of TM2 and TM4.
Dashed lines in e, f represent the level of WT (unstimulated) V1/2 at pHe 7.4. g Normalized currents from TEVC measurements of oocytes expressing WT (n = 11) and mutant L262A (n = 5) or L264A TALK-2 channels (n = 8), respectively. Channels were activated by increasing pHe from 5.5 to 10.5 with 0.5 pH increments. Currents were elucidated with a voltage protocol ramped from −120 mV to +45 mV within 3.5 s, analyzed at +40 mV and normalized to pH 10.5. Data shown are the mean ± s.e.m and the number (n) of independent experiments is indicated in the figure and supplementary tables 3 and 4.
Conductance-voltage (G–V) relationships were determined from tail currents recorded at a holding potential (VH) of −80 mV after 300 ms depolarizing steps as indicated in the respective figure legend. Data were analyzed with a single Boltzmann fit following Eq. 6:6 GV=Imax/1+e^V−V1/2/slope+Ibase where V1/2 represents the voltage of half-maximal activation, s is the slope factor and Imax and Ibase represent the upper and lower asymptotes. Under appropriate experimental conditions, you can use slope to calculate the valence (charge) of the ion moving across the channel. Slope equals R * T/ z * F where R is the universal gas constant, T is temperature in K, F is the Faraday constant, and z is the valence.

[3] = target: T2, WT TALK-2 channels (human K2P17.1) (Homo sapiens, UniProt Q96T54); design: expressed in transfected cells; host or cells: Xenopus laevis oocytes (cRNA injection), excised inside-out patches; method as in PMID 34928298; settings: cited from earlier work
T2 sequence (Q96T54 1-332): T1 sequence (Q96T54 1-332 L264A) with A264L

[4] = test system: WT TREK-1 channels (human K2P2.1); settings: TREK-1 WT
Experimental: Oocytes were surgically removed from anesthetized adult females, treated with type II collagenase (Sigma-Aldrich/Merck, Germany) and manually defolliculated. 50 nl of a solution containing the K^+ channel specific cRNA was injected into Dumont stage V - VI oocytes and subsequently incubated at 17 °C in a solution containing (mM): 54 NaCl, 30 KCl, 2.4 NaHCO3, 0.82 MgSO4 x 7 H2O, 0.41 CaCl2, 0.33 Ca(NO3)2 x 4 H2O and 7.5 TRIS (pH 7.4 adjusted with NaOH/HCl) for 1–7 days before use. Electrophysiological recordings: Excised patch measurements in inside-out configuration under voltage-clamp conditions were performed at room temperature (22 – 24 °C). […] Intracellular bath solutions and compounds were applied to the cytoplasmic side of excised patches for the various K^+ channels via a gravity flow multi-barrel pipette system. Intracellular solution had the following composition (in mM): 120 KCl, 10 HEPES, 2 EGTA and 1 Pyrophosphate (pH adjusted with KOH/HCl). In other intracellular bath solutions, K^+ was replaced by Rb^+ (pH 7.4 adjusted with RbOH/HCl). Currents were recorded with an EPC10 amplifier (HEKA electronics, Germany) and sampled at 10 kHz or higher and filtered with 3 kHz (-3 dB) or higher as appropriate for sampling rate.
Recorded currents were analyzed from stable membrane patches at a voltage defined in the respective figure legend or with a voltage protocol as indicated in the respective figure. The fold activation (fold change in (tail) current amplitude) of a ligand (drug or bioactive lipid) was calculated from Eq. 1:1 Fold activationFA=Iactivated/Ibasal where Iactivated represents the stable current level in the presence of a given concentration of a respective ligand and Ibasal the measured current before ligand application. Percentage inhibition or residual currents upon blocker application for a ligand (drug or bioactive lipid) was calculated from stable currents of excised membrane patches using the following Eqs. 2 and 3:2 %inhibition=1−Iinhibited/Ibasal*100 3 Residual current=100−%inhibition where Iinhibited refers to the stable current level recorded in the presence of a given concentration of a drug or bioactive lipid and Ibasal to the measured current before ligand application. The macroscopic half-maximal concentration-inhibition relationship of a ligand was obtained using a Hill-fit for dose-response curves as depicted in Eq. 4:4 %inhibition/activation=Ibase+Imax−Ibase/1+x1/2/x^rate where base and max are the currents in the absence and presence of a respective ligand, x is the concentration of the ligand, x1/2 is the ligand concentration at which the activatory or inhibitory effect is half-maximal, rate is the Hill coefficient.

WT TALK-2 channels = target: T3, WT TALK-2 channels (Homo sapiens, UniProt Q96T54); settings: TALK-2 WT
T3 sequence (Q96T54 1-332): T1 sequence (Q96T54 1-332 L264A) with A264L
Experimental: Data shown are the mean ± s.e.m and the number (n) of repeats of the representative measurements with similar results is indicated in the figure.
Oocytes were surgically removed from anesthetized adult females, treated with type II collagenase (Sigma-Aldrich/Merck, Germany) and manually defolliculated. 50 nl of a solution containing the K^+ channel specific cRNA was injected into Dumont stage V - VI oocytes and subsequently incubated at 17 °C in a solution containing (mM): 54 NaCl, 30 KCl, 2.4 NaHCO3, 0.82 MgSO4 x 7 H2O, 0.41 CaCl2, 0.33 Ca(NO3)2 x 4 H2O and 7.5 TRIS (pH 7.4 adjusted with NaOH/HCl) for 1–7 days before use. Electrophysiological recordings: Excised patch measurements in inside-out configuration under voltage-clamp conditions were performed at room temperature (22 – 24 °C). Patch pipettes were made from thick-walled borosilicate glass GB 200TF-8P (Science Products, Germany), had resistances of 0.2–0.5 MΩ (tip diameter of 10 - 25 µm) and filled with a pipette solution (in mM): 120 KCl, 10 HEPES and 3.6 CaCl2 (pH 7.0 - 8.5 adjusted with KOH/HCl) or 120 KCl, 10 AMPSO and 3.6 CaCl2 (pH 9.0 - 10.5 adjusted with KOH/HCl). Intracellular bath solutions and compounds were applied to the cytoplasmic side of excised patches for the various K^+ channels via a gravity flow multi-barrel pipette system. Intracellular solution had the following composition (in mM): 120 KCl, 10 HEPES, 2 EGTA and 1 Pyrophosphate (pH adjusted with KOH/HCl). In other intracellular bath solutions, K^+ was replaced by Rb^+ (pH 7.4 adjusted with RbOH/HCl). Currents were recorded with an EPC10 amplifier (HEKA electronics, Germany) and sampled at 10 kHz or higher and filtered with 3 kHz (-3 dB) or higher as appropriate for sampling rate.

CCCCC[N+](CCCCC)(CCCCC)CCCCC [TPenA, Tetra-pentyl-ammonium chloride]
IC50 [1]: 459 ± 58 µM | Residual currents with 1 mM TPenA ([1]; TALK-2 L264A, +40 mV): 29.31% | Normalized currents ([1]; TALK-2 L264A, 1 µM TPenA): 0.99 | Normalized currents ([1]; TALK-2 L264A, 10 µM TPenA): 0.97 | Normalized currents ([1]; TALK-2 L264A, 100 µM TPenA): 0.77 | Normalized currents ([1]; TALK-2 L264A, 1000 µM TPenA): 0.32 | Normalized currents ([1]; TALK-2 L264A, 4000 µM TPenA): 0.17 | Normalized current ([2]; Voltage 0.000): 0.564 | Normalized current ([2]; Voltage 0.005): 0.623 | Normalized current ([2]; Voltage 0.010): 0.674 | Normalized current ([2]; Voltage 0.015): 0.740 | Normalized current ([2]; Voltage 0.020): 0.788 | Normalized current ([2]; Voltage 0.025): 0.840 | Normalized current ([2]; Voltage 0.030): 0.884 | Normalized current ([2]; Voltage 0.035): 0.911 | Normalized current ([2]; Voltage 0.040): 0.934 | Normalized current ([2]; Voltage 0.045): 0.947 | Normalized current ([2]; Voltage 0.050): 0.961 | Normalized current ([2]; Voltage 0.055): 0.969 | Normalized current ([2]; Voltage 0.060): 0.977 | Normalized current ([2]; Voltage 0.065): 0.978 | Normalized current ([2]; Voltage 0.070): 0.978 | Normalized current ([2]; Voltage 0.075): 0.974 | Normalized current ([2]; Voltage 0.080): 0.988 | Normalized current ([2]; Voltage 0.085): 0.976 | Normalized current ([2]; Voltage 0.090): 0.979 | Normalized current ([2]; Voltage 0.095): 0.980 | Normalized current ([2]; Voltage 0.100): 0.977 | Normalized current ([2]; Voltage 0.105): 0.982 | Normalized current ([2]; Voltage 0.110): 0.987 | Normalized current ([2]; Voltage 0.115): 0.981 | Normalized current ([2]; Voltage -0.005): 0.522 | Normalized current ([2]; Voltage -0.010): 0.490 | Normalized current ([2]; Voltage -0.015): 0.463 | Normalized current ([2]; Voltage -0.020): 0.444 | Normalized current ([2]; Voltage -0.025): 0.430 | Normalized current ([2]; Voltage -0.030): 0.417 | Normalized current ([2]; Voltage -0.035): 0.405 | Normalized current ([2]; Voltage -0.040): 0.395 | Normalized current ([2]; Voltage -0.045): 0.384 | Normalized current ([2]; Voltage -0.050): 0.375 | Normalized current ([2]; Voltage -0.055): 0.367 | Normalized current ([2]; Voltage -0.060): 0.359 | Normalized current ([2]; Voltage -0.065): 0.351 | Normalized current ([2]; Voltage -0.070): 0.345 | Normalized current ([2]; Voltage -0.075): 0.337 | Normalized current ([2]; Voltage -0.080): 0.333 | Normalized current ([2]; Voltage -0.085): 0.330 | Normalized current ([2]; Voltage -0.090): 0.331 | Normalized current ([2]; Voltage -0.095): 0.326 | effect of TPenA on the G-V curve ([2]; TALK-2 L264A, intracellular Rb+): no marked effect

CCCCCCCC/C=C\CCCCCCCC(=O)SCCNC(=O)CCNC(=O)[C@H](O)C(C)(C)COP(=O)(O)OP(=O)(O)OC[C@H]1O[C@@H](n2cnc3c(N)ncnc32)[C@H](O)[C@@H]1OP(=O)(O)O [oleoyl-CoA]
increase of channel activity [3]: more than 100 fold

NCCOB(c1ccccc1)c1ccccc1 [2-APB, 2-aminoethoxydiphenyl borate]
Normalized currents ([4]; 0.1 µM 2-APB): 0.03 | Normalized currents ([4]; 1 µM 2-APB): 0.04 | Normalized currents ([4]; 10 µM 2-APB): 0.08 | Normalized currents ([4]; 100 µM 2-APB): 0.28 | Normalized currents ([4]; 200 µM 2-APB): 0.47 | Normalized currents ([4]; 500 µM 2-APB): 0.80 | Normalized currents ([4]; 1000 µM 2-APB): 0.97 | Normalized currents ([4]; 2000 µM 2-APB): 0.99 | Rb+-induced current (WT TALK-2 channels; 0.001 mM 2-APB): 0.79 nA | Rb+-induced current (WT TALK-2 channels; 0.01 mM 2-APB): 0.98 nA | Rb+-induced current (WT TALK-2 channels; 0.1 mM 2-APB): 2.85 nA | Rb+-induced current (WT TALK-2 channels; 0.5 mM 2-APB): 8.79 nA | Rb+-induced current (WT TALK-2 channels; 1.0 mM 2-APB): 11.82 nA | Rb+-induced current (WT TALK-2 channels; 2.0 mM 2-APB): 15.32 nA
